# In US12371427B2, “Polymorphic forms of a substituted-quinoxaline-type bridged-piperidine compound” (Purdue Pharma L.P., priority 2019, dated 2025):
# Where two headings read alike, the source gives them in different places.
# Key:
# Assay type in all cases: physicochemical
# [1] = Particle size distribution after jet milling, laser diffraction dry particle size analyzer; details: crystalline Form A after fluidized bed opposed jet milling
# Procedure: 21.98 kg of crystalline Form A Formula (I) was processed in a fluidized bed opposed jet mill (Model number 100AFG; Hosokawa Micron) at a feed rate of 8 kg/h under nitrogen at 0.6 MPa and 15,000 rpm. After milling, 20.9 kg ([…]) was collected and analyzed by laser diffraction dry particle size analyzer (HELOS&RODOS).
# [2] = Solubility study, visually estimated by dosing solvent aliquots into 10.0 mg API; details: thermodynamic from solid
# Procedure: Solubility was assessed in an array of diverse solvents in order to facilitate the selection of solvent systems and corresponding dosing strategies for the subsequent crystal-form screening experiments. The solubility of Form A of Formula (I) was visually estimated in 12 solvents at RT, and if applicable, at 40° C. by dosing small aliquots of the solvent into a fixed amount of the API (10.0 mg) until the dissolution point or a maximum volume of 1.8 mL was reached.
# [3] = Relative stability (ripening) study of crystal forms at various water activity levels
# Procedure: Relative stability studies were conducted at 25° C. to determine thermodynamic crystal stability at various water activity levels ranging from aw=0 to aw=0.94. Both non-solvated forms (Forms A and D) and hydrate forms (Form C and E) were ripened during the study.
# Saturated suspensions of the Formula (I) were prepared by stirring excess API in the specified solvent system. The suspension was stirred overnight at 25° C. A clarifying filtration was performed and the filtrate was added to a 2 mL vial containing seeds or small quantities of the relevant forms. The resulting suspensions were stirred at 25° C. for seven days. The solids were isolated, air-dried for 45 minutes, and analyzed by FTIR.
smiles,measurement,setting,value
O=C(O)c1nc2ccccc2n([C@H]2C[C@H]3CCC[C@@H](C2)N3C2CC3CCCC(C3)C2)c1=O (stereo partly shown) [Formula (I)],D10,[1],0.63 μm
same,D30,[1],1.36 μm
same,D50,[1],2.29 μm
same,D70,[1],3.57 μm
same,D90,[1],5.8 μm
same,solubility,"[2]; all solvents of Table 3 other than DMSO, organic solvent or mixture, read-out: Solubility (low) in all other solvents evaluated",≤ 7000 µg/mL
same,solubility,"[2]; organic solvent or mixture, DMSO, RT, read-out: Solubility at RT",21000 to 52000 µg/mL
O=C(O)c1nc2ccccc2n([C@H]2C[C@H]3CCC[C@@H](C2)N3C2CC3CCCC(C3)C2)c1=O (stereo partly shown) [Form A],solubility,"[2]; organic solvent or mixture, DCM, 40° C., read-out: Solubility at 40° C.",< 6000 µg/mL
same,solubility,"[2]; organic solvent or mixture, DCM, RT, read-out: Solubility at RT",< 6000 µg/mL
same,solubility,"[2]; organic solvent or mixture, EtOAc, 40° C., read-out: Solubility at 40° C.",< 6000 µg/mL
same,solubility,"[2]; organic solvent or mixture, EtOAc, RT, read-out: Solubility at RT",< 6000 µg/mL
same,solubility,"[2]; organic solvent or mixture, IPA, 40° C., read-out: Solubility at 40° C.",< 6000 µg/mL
same,solubility,"[2]; organic solvent or mixture, IPA, RT, read-out: Solubility at RT",< 6000 µg/mL
same,solubility,"[2]; organic solvent or mixture, IPA:water (9:1), 40° C., read-out: Solubility at 40° C.",< 6000 µg/mL
same,solubility,"[2]; organic solvent or mixture, IPA:water (9:1), RT, read-out: Solubility at RT",< 6000 µg/mL
same,solubility,"[2]; organic solvent or mixture, IPE, 40° C., read-out: Solubility at 40° C.",< 6000 µg/mL
same,solubility,"[2]; organic solvent or mixture, IPE, RT, read-out: Solubility at RT",< 6000 µg/mL
same,solubility,"[2]; organic solvent or mixture, MTBE, 40° C., read-out: Solubility at 40° C.",< 6000 µg/mL
same,solubility,"[2]; organic solvent or mixture, MTBE, RT, read-out: Solubility at RT",< 6000 µg/mL
same,solubility,"[2]; organic solvent or mixture, MeCN, 40° C., read-out: Solubility at 40° C.",< 6000 µg/mL
same,solubility,"[2]; organic solvent or mixture, MeCN, RT, read-out: Solubility at RT",< 6000 µg/mL
same,solubility,"[2]; organic solvent or mixture, MeOH, 40° C., read-out: Solubility at 40° C.",< 7000 µg/mL
same,solubility,"[2]; organic solvent or mixture, MeOH, RT, read-out: Solubility at RT",< 7000 µg/mL
same,solubility,"[2]; organic solvent or mixture, THF, 40° C., read-out: Solubility at 40° C.",< 6000 µg/mL
same,solubility,"[2]; organic solvent or mixture, THF, RT, read-out: Solubility at RT",< 6000 µg/mL
same,solubility,"[2]; organic solvent or mixture, Toluene, 40° C., read-out: Solubility at 40° C.",< 7000 µg/mL
same,solubility,"[2]; organic solvent or mixture, Toluene, RT, read-out: Solubility at RT",< 7000 µg/mL
same,solubility,"[2]; Water, 40° C., read-out: Solubility at 40° C.",< 6000 µg/mL
same,solubility,"[2]; Water, RT, read-out: Solubility at RT",< 6000 µg/mL
same,Crystal form remaining after the ripening study,"[3]; all solvent systems, 25° C., seven days, FTIR",the only crystal form remaining
same,Relative stability among crystalline forms of Formula (I),[3]; confirmed in ripening studies,the most stable crystalline form
